Reference: patent publication US8304529B2, “Dinucleotide MRNA cap analogs” (Life Technologies Corporation, priority 2006, dated 2012)

What was measured:
HeLa cells = experiment: Luciferase protein expression after transfection of capped luciferase RNA into HeLa cells; assay type: cell-based; settings: for protein expression compared with mCAP: capped luciferase RNAs with poly(A) tail, different time points after transfection, higher than mCAP
Procedure: Structures were confirmed by ^1H NMR and ^31P NMR. Transcripts produced with T7 RNA polymerases using “anti-reverse” cap analogs (ARCAs) were of the predicted length and indistinguishable in size and homogeneity from those produced with m^7GpppG. Transfection assays were performed by using standard cap analog-capped and ARCA-capped luciferase in in vitro transcribed RNA with HeLa cells.

[1] = tested on: phage RNA polymerase such as T7, T3 or SP6; settings: cited from earlier work

Structure (SMILES)	protein expression compared with mCAP (HeLa cells)	attachment of cap to RNA in the reverse orientation ([1]; NTPs and cap RNA present in comparable concentrations)	capped RNA in transcription product ([1]; m7GpppG to GTP 4:1, mMESSAGE mMACHINE kit, rest 20% uncapped)	translation of capped transcripts in transfected cells (HeLa cells; compared with mCAP, double methylated and ARCA capped luciferase RNAs)
CO[C@H]1[C@@H](O)[C@H](n2c[n+](C)c3c(=O)[nH]c(N)nc32)O[C@@H]1COP(=O)(O)OP(=O)(O)OP(=O)(O)OC[C@H]1O[C@@H](n2cnc3c(=O)[nH]c(N)nc32)[C@H](O)[C@@H]1O [ARCA, m2^7,3′OG[5′]ppp[5′]G]	3 fold			
C[n+]1cn([C@@H]2O[C@H](COP(=O)(O)OP(=O)(O)OP(=O)(O)OC[C@H]3O[C@@H](n4c[n+](C)c5c(=O)[nH]c(N)nc54)[C@H](O)[C@@H]3O)[C@@H](O)[C@H]2O)c2nc(N)[nH]c(=O)c21 [double methylated cap, m^7 (5′)Gppp(5′)m^7G]	one fold higher			
Cn1c[n+]([C@@H]2O[C@H](COP(=O)(O)OP(=O)(O)OP(=O)(O)OC[C@H]3O[C@@H](n4cnc5c(=O)[nH]c(N)nc54)[C@H](O)[C@@H]3O)[C@@H](O)[C@H]2O)c2nc(N)[nH]c(=O)c21 [mCAP, m^7G(5′)ppp(5′)G]		around 50%	80%	
COC1C(COP(=O)([O-])OP(=O)(O)OP(=O)([O-])OCC2OC(n3c[n+](C)c4c(=O)[nH]c(N)nc43)C(O)C2O)OC(n2c[n+](C)c3c(=O)[nH]c(N)nc32)C1O (stereo not drawn) [triple methylated cap, m2^7,3′OG[5′]ppp[5′]m^7G]	4 fold			more highly translated
